{"source": "paper PMC8434491", "about": "“Targeting the Integrated Stress Response Kinase GCN2 to Modulate Retroviral Integration” (Molecules, 2021)", "key": {"[1]": {"biological_target": "T1, IN–GCN2 interaction (UniProt P04585+Q9P2K8)", "T1 construct": "expressed as a truncated version (192-1024) in fusion after a glutathione S-transferase tag; Recombinant full-length IN was expressed in E. coli BL21 pLys; purchased SignalChem (GCN2); IN made in house in E. coli BL21 pLys E12-11G; host or cells: E. coli BL21 pLys (IN)", "assay": "IN–GCN2 interaction assay (AlphaLISA)", "format": "binding, HIV-1 IN / human GCN2", "details": "pilot screen, single dose of 100 µM; read-out: inhibition of the IN–GCN2 interaction signal", "from_the_text": "We developed an in vitro plate-based assay to monitor the interaction between GCN2 and IN using the AlphaLISA technology (Figure 1). Taking advantage of the tags present on each recombinant protein (6xHis for IN prepared “in-house”, and GST for GCN2 commercially available), we used specific beads that fluoresce only when they are in close proximity (<200 nm). The signal obtained (light count) is directly proportional to the binding of IN to GCN2 (homogenous solution assay at steady state).\nIN–GCN2 interaction assay. Protein–protein interactions were monitored using the AlphaLISA technology (Perkin Elmer) taking advantage of the GST and 6xHis tags of GCN2 and IN, respectively. Accordingly, AlphaScreen GSH Donor beads and AlphaLISA Nickel Acceptor beads were used (Perkin Elmer). Reactions were carried out at room temperature by incubating GCN2 with drugs or DMSO for 5 min before addition of AlphaLISA Nickel Acceptor beads. After 5 min, IN was added to the reaction mixture and incubated for 20 min before adding the AlphaScreen GSH Donor beads. This interaction assay was performed in conditions similar to the in vitro phosphorylation assay, already described, using 25 nM GCN2 and 700 nM (except indicated otherwise) in a reaction buffer containing 50 mM Tris-HCl pH 7.5, 40 mM NaCl, 1 mM dithiothreitol (DTT), 0.05% Tween 20, 0.1% bovine serum albumin (BSA), 10 µg/mL of each donor and acceptor beads. Alpha signal was measured using an EnSight plate reader (Perkin Elmer) 120 min after the addition of the latest component of the reaction (unless indicated otherwise)."}, "[2]": {"biological_target": "T2, GCN2 (Homo sapiens, UniProt Q9P2K8)", "T2 construct": "expressed as a truncated version (192-1024) in fusion after a glutathione S-transferase tag; purchased SignalChem E12-11G", "T2 sequence (Q9P2K8 192-1024)": "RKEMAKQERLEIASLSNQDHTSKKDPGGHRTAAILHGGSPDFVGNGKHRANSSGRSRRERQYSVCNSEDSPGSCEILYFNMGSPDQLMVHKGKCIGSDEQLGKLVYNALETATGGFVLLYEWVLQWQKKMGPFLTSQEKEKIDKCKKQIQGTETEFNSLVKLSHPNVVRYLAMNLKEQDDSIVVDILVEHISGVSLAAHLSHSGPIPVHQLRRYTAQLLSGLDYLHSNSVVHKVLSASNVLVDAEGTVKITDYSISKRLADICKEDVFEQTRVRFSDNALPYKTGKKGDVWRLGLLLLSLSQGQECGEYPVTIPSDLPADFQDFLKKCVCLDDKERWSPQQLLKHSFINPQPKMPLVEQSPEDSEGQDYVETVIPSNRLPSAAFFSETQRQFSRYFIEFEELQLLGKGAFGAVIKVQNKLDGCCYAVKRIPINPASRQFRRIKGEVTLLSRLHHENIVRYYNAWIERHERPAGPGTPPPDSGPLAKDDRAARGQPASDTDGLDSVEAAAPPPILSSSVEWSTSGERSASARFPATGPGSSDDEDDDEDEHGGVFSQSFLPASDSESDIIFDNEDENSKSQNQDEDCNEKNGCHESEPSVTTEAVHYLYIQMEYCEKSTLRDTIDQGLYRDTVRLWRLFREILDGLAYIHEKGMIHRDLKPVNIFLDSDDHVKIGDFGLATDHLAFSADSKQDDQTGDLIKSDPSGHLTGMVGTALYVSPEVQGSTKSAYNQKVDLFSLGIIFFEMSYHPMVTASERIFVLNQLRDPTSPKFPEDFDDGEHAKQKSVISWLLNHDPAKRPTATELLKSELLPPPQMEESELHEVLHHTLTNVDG", "assay": "In vitro phosphorylation assay: GCN2 activation (auto-phosphorylation)", "format": "biochemical", "details": "with IN", "from_the_text": "Enzymes. GCN2 was purchased from SignalChem (EIF2AK4, cat. #E12-11G). This human recombinant protein was expressed as a truncated version (192-1024) in fusion after a glutathione S-transferase tag (approximate molecular weight of 132 kDa). Recombinant full-length IN was expressed in E. coli BL21 pLys (IPTG induction) and purified on a nickel chelating column, as described. Integrity and purity were checked by direct Coomassie coloration of elution fractions on SDS-PAGE before dialysis to remove imidazole. Protein concentration was determined using a NanoDrop 2000 with the following parameters: molecular weight: 34 kDa, extinction coefficient ϵ = 50,460 mol^−1cm^−1L.\nIn vitro phosphorylation assay. Phosphorylation of IN (700 nM) was carried out using 25 nM of GCN2 in a reaction buffer containing 10 mM Tris-HCl pH 7.5, 50 mM NaCl, 15 mM MgCl2, 7.5 mM MnCl2, 10 mM DTT, 0.005% Nonidet P-40, 100 µM ATP, 50 µCi/µL of [γ-^32P]-ATP (3000 Ci/mmole, Perkin Elmer). Reactions (20 µL) were stopped after a 60 min incubation at 30 °C by adding 10 µL of loading buffer [80 mM Tris-HCl pH 6.8, 100 mM DTT, 10% glycerol, 1% sodium dodecyl sulfate (SDS) and 0.05% bromophenol blue]. Samples were then loaded onto a 10% denaturating SDS-PAGE. After protein separation (120 V for 120 min) the gel was stained using Coomassie Brilliant Blue R-250. Autoradiography was performed using an imaging plate (Fujifilm, Tokyo, Japan) and images were obtained with a FLA-5000 Imaging System (Fujifilm)."}, "[3]": {"biological_target": "T2, GCN2", "assay": "In vitro phosphorylation assay: GCN2 activation (auto-phosphorylation)", "format": "biochemical", "details": "without IN, read-out: GCN2 auto-phosphorylation signal, % of the DMSO control"}}, "note": "Read-outs that look alike come from different tables or passages of the source.", "data": [{"compound": "O=C1c2c(O)ccc(O)c2C(=O)c2c(NCCNCCO)ccc(NCCNCCO)c21", "note": "[NSC279836, Mitoxantrone]", "values": [{"measurement": "inhibition at 100 µM", "setting": "[1]", "value": 99.4, "unit": "%"}, {"measurement": "remaining activity at 100 µM", "setting": "[2]; 100 µM, read-out: GCN2 auto-phosphorylation signal, % of the DMSO control", "value": 171, "unit": "%"}, {"measurement": "effect on GCN2 auto-phosphorylation in dose-response", "setting": "[2]; serial dilutions from 300 µM to 137 nM", "value": "reproducible increase"}, {"measurement": "remaining activity at 100 µM", "setting": "[3]", "value": 145, "unit": "%"}]}]}
